Source: PubChem BioAssay AID1361 (SRMLSC, 2008)
Activity calls are given as the source filed them. The rule behind the calls is not given here.

Assay: blockers of mitochondrial fusion, WT vs mutant – cell-based, chemical genetic, wild-type and mutant, confirmation (AID 1361)
Conditions: Cell-based mitochondrial fusion phenotype, imaging
[1] = mutant cells, measured here: mutant cell line IC50

Compound	IC50 (WT cells)	IC50 [1] [µM]
O=C(NC(=S)NCCC1=CCCCC1)c1ccccc1Br	20.9 µM	> 25
COc1ccccc1N1CCN(CC(=O)Nc2ccc(Cl)c(C(F)(F)F)c2)CC1	20.2 µM	> 25
O=C(N/N=C/C=C/c1ccccc1)C1CC1c1ccccc1 (centres undefined)	> 25 µM (inactive)	> 25
Cc1ccc(S(=O)(=O)c2nc(Nc3ccccc3)sc2Cl)cc1	14.1 µM	> 25
O=C(c1c(F)c(F)c(F)c(F)c1F)N(Cc1ccccc1)Cc1ccccc1	15 µM	22.4
CC(=O)Nc1ccc(S(=O)(=O)N2CCSC2c2ccc(Cl)cc2)cc1 (centres undefined)	> 25 µM (inactive)	> 25
CC(C)C(=O)Nc1cc(S(=O)(=O)Nc2ccc(Cl)cc2)ccc1Cl	22 µM	> 25
CCn1cc(C(=O)N2CCc3ccccc32)c(=O)c2cc(S(=O)(=O)N(C)C3CCCCC3)ccc21	> 25 µM (inactive)	> 25
CC(C)(C)c1ccc(CN2N=C(/C=C/c3ccccc3)CCC2=O)cc1	11.3 µM	> 25
Cn1c(=O)n(C)c2cc([N+](=O)[O-])c(N3CCN(S(=O)(=O)c4ccc(C(C)(C)C)cc4)CC3)cc21	5.99 µM	> 25
Cc1nc(=O)c(-c2ccccc2)c(C)n1CCCCCC(=O)O	> 25 µM (inactive)	> 25
COCCn1c(=S)[nH]c2cc(C(=O)N3CCc4ccccc43)ccc2c1=O	> 25 µM (inactive)	> 25
COc1ccc(NC(=O)Nc2cccc([N+](=O)[O-])c2)cc1Cl	> 25 µM (inactive)	> 25
O=c1c2ccccc2nc2n1C1(CCCCC1)Cc1ccccc1-2	23.4 µM	> 25
Cc1cccc(NC(=O)c2ccc(N3CCCCC3)c([N+](=O)[O-])c2)n1	> 25 µM (inactive)	> 25
CN1CC(=O)Nc2ccc(F)cc2C1=O	> 25 µM (inactive)	> 25
O=C(Nc1ccc(Cl)cc1)N1CCN(c2ccc3nnc(-c4ccc(F)cc4)n3n2)CC1	> 25 µM (inactive)	> 25
Cn1c(CN2CCCCC2)nc2cc(NC(=O)c3ccc(Cl)cc3)ccc21	> 25 µM (inactive)	> 25
CC1(C)C=Cc2c(c3c(c4c(=O)c(-c5ccc(O)cc5)coc24)OC(C)(C)CC3)O1	14 µM	24.4
CCN(CC)c1nc(-c2ccccc2)ncc1S(=O)(=O)c1ccc(C)cc1	11 µM	> 25
COc1ccc(NP(=O)(Oc2ccc(Cl)cc2)Oc2ccc(Cl)cc2)cc1OC	12.6 µM	> 25

Compound	IC50 (WT cells)	IC50 [1] [µM]
CCOC(=O)Cn1c(=NC(=O)c2ccc([N+](=O)[O-])s2)sc2ccccc21	4.55 µM	> 25
CC(=O)Oc1ccc(N(C(C)=O)S(=O)(=O)c2cccs2)cc1	> 25 µM (inactive)	> 25
CC1CC(C)CN(C(=O)c2cc3cc(Br)cc(Br)c3o2)C1 (centres undefined)	13.7 µM	22.5
COc1cc(SC#N)ccc1N=Cc1c(C)[nH]n(-c2ccc(C)cc2)c1=O	17.4 µM	> 25
Cc1cc(C(=O)Nn2c(C3CCCCC3)nc3ccccc3c2=O)ccc1[N+](=O)[O-]	16.7 µM	> 25
Cc1ccc(/C(=N\O)c2oc3c(C)c4oc(=O)cc(C)c4cc3c2C)cc1	7.3 µM	> 25
O=C(Nc1ccccc1N1CCOCC1)c1cccc(F)c1	9.3 µM	21.6
COc1ccc(-c2nnc(SCC(=O)c3cccs3)o2)c(OC)c1	> 25 µM (inactive)	> 25
COc1cccc(OC)c1OCCCCN1CCCC1	> 25 µM (inactive)	> 25
CCOC(=O)c1c(C)[nH]c(C)c1C(=O)CSc1nnc(-c2ccncc2)n1C	> 25 µM (inactive)	> 25
O=c1ccccn1Cc1c(Cl)cccc1Cl	> 25 µM (inactive)	> 25
CCN1CCN(CCNC(=O)c2ccc(/C=C3/Sc4ccccc4N(Cc4ccccc4C)C3=O)cc2)CC1	15.5 µM	> 25
C=CCC(C(=O)OC)(C(=O)OC)c1ccc([N+](=O)[O-])cn1	> 25 µM (inactive)	> 25
O=Nc1c(O)n(Cc2cccc(Cl)c2)c2ccccc12	> 25 µM (inactive)	> 25
S=C(NCCNCc1ccccc1)NC1CCCCC1	13.6 µM	> 25
Fc1ccc(C(CCCn2nnc(-c3cccnc3)n2)c2ccc(F)cc2)cc1	21.9 µM	> 25
COc1ccc(O[C@H]2C=C[C@@H](c3ccccc3)O[C@@H]2COC(=O)CC/C(C)=N/O[C@@H](C)CN2CCCCc3nc(C)c(C)cc32)cc1	12.1 µM	> 25
Cc1cc(C)nc(N2CCC(C(=O)NCCc3ccc(F)cc3)CC2)n1	> 25 µM (inactive)	> 25
CCOc1ccccc1N1CCN(C(=O)c2ccc3[nH]c4c(c3c2)CCCC4)CC1	17.1 µM	> 25
Cc1cc(Br)ccc1NC(=O)CN1C(=O)C2C3CC(c4ccccc4)C(C3)C2C1=O (centres undefined)	20.4 µM	> 25
CCOC(=O)c1c(-c2ccc(OC)cc2)csc1/N=C/C1=C(O)CCCC1=O	> 25 µM (inactive)	> 25

Compound	IC50 (WT cells)	IC50 [1] [µM]
N#Cc1ccccc1Sc1ccccc1C(=O)Nc1ccc(Br)cc1	> 25 µM (inactive)	> 25
O=C(O)C1C2C=CC(C2)C1C(=O)Nc1ccc(C(=O)N2CCCCC2)cc1 (centres undefined)	> 25 µM (inactive)	> 25
Cc1cccc2nc(-c3ccccc3)nc(N3CCC(O)(c4ccc(Cl)cc4)CC3)c12	4.04 µM	> 25
N#Cc1ccc(NC(=O)Nc2ccc(Cl)cc2)cc1	9.83 µM	13.6
C/C(=N\N=C(/N)SC1CC(=O)N(c2cccc(Cl)c2)C1=O)c1cccs1 (centres undefined)	> 25 µM (inactive)	> 25
CC(Oc1ccc2oc3ccccc3c2c1)C(=O)NC12CC3CC(CC(C3)C1)C2 (centres undefined)	9.61 µM	15.7
C=CCn1c(N)c(C(=O)OCC(C)C)c2nc3ccccc3nc21	> 25 µM (inactive)	> 25
CCCC[n+]1c(-c2ccc(Cl)cc2Cl)csc1Nc1ccccc1	6.52 µM	> 25
N#CC1=C(N)C2=CCCC[C@H]2[C@H](c2ccc(Br)cc2)C1(C#N)C#N	4.48 µM	7.07
Cn1c(=O)cc(OCCCC(=O)N2CCN(c3ccccc3)CC2)c2ccccc21	> 25 µM (inactive)	> 25
COc1cccc2cc(C(=O)N3CCc4ccccc43)c(=O)oc12	> 25 µM (inactive)	> 25
C/C(=N\Nc1nc(N2CCCCCC2)nc(N2CCCCCC2)n1)c1ccccc1	12.6 µM	> 25
O=C(Nn1c(-c2ccccc2)nc2ccccc2c1=O)C1CCC1	> 25 µM (inactive)	> 25
CCCOc1ccc(C2C(C(=O)c3ccco3)=C(O)C(=O)N2CCN2CCOCC2)cc1OC (centres undefined)	> 25 µM (inactive)	> 25
COc1ccc2nc(NC(=O)c3cccc(OCc4c(C)noc4C)c3)sc2c1	> 25 µM (inactive)	> 25
O=C(NCc1ccccc1)c1ccc(-c2ccccc2C(F)(F)F)o1	> 25 µM (inactive)	> 25
Cc1cccc(-n2c(CCc3ccccc3)nnc2SCC(=O)c2ccccc2)c1	20.6 µM	> 25
COc1cc(C(=O)OC2CC3CCC2(C)C3(C)C)ccc1OC(C)=O (centres undefined)	20 µM	> 25
Oc1cccc(C(O)CNCc2ccc(OCc3ccc(Cl)cc3Cl)cc2)c1 (centres undefined)	15 µM	17.2
C/C(N)=C(/C#N)C(=O)CSc1nnnn1-c1ccccc1	> 25 µM (inactive)	> 25
CN1C(=S)SC(C)(C)C1(C)NO (centres undefined)	> 25 µM (inactive)	> 25

Compound	IC50 (WT cells)	IC50 [1] [µM]
CCOc1ccc(Br)cc1C1C(C(=O)OC)=C(N)Oc2cc(N(C)C)ccc21 (centres undefined)	11.7 µM	> 25
CCCn1nnc(NC(=O)c2ccc(-c3cccc(Cl)c3)o2)n1	> 25 µM (inactive)	> 25
COc1ccc(-c2cc3nc(-c4ccccc4)cc(N4CCC(O)CC4)n3n2)cc1	> 25 µM (inactive)	> 25
CC1(C)CC(=O)C(C=Nc2ccc3[nH]ncc3c2)=C(O)C1	> 25 µM (inactive)	> 25
CCOC(=O)c1cnc(-n2nc(C)cc2C)nc1NNc1cc(C)nc(-c2ccccc2)n1	16.3 µM	> 25
Cc1ccc(N(CC(O)Cn2c3ccccc3c3ccccc32)S(C)(=O)=O)c(C)c1 (centres undefined)	18.8 µM	> 25
CCOC(=O)c1c(-c2cccs2)csc1NC(=O)C(C)(C)C	24.5 µM	> 25
CCOc1ccccc1CNC(=O)c1ccc(Sc2ccc(Cl)cc2)c(NC(C)=O)c1	16.9 µM	> 25
O=C1CCCCC1C(Nc1ccc(Br)cc1)c1ccccc1 (centres undefined)	20.5 µM	> 25
OC(CC1CC12c1ccccc1-c1ncccc12)(c1ccccc1)c1ccccc1 (centres undefined)	13.8 µM	> 25
CC(C)=C1C2CCC1C(C(=O)Nc1sc(C)c(-c3ccc(C(C)C)cc3)c1C(N)=O)C2C(=O)O (centres undefined)	20.8 µM	> 25
Cc1ccc(C(C(=O)NC2CCCC2)N(C(=O)Cc2cccs2)c2ccc(C)c(C)c2)o1 (centres undefined)	22.4 µM	> 25
CCc1ccc(OCC2c3cc(OC)c(OC)cc3CCN2C(=S)NC)cc1 (centres undefined)	> 25 µM (inactive)	> 25
Cc1cccc(N2CCN(C(c3ccccc3)c3nnnn3C(C)(C)C)CC2)c1C (centres undefined)	9.14 µM	> 25
Clc1ccc2ncc(-c3nnnn3-c3ccccc3)c(-c3ccccc3)c2c1	15.7 µM	> 25
CCN(Cc1ccccc1)C(c1cccs1)c1nnnn1C1CCCCC1 (centres undefined)	8.92 µM	> 25
COc1ccccc1NC(=O)c1cccc(NC(=O)c2ccco2)c1	> 25 µM (inactive)	> 25
CCCN(Cc1ccccc1)C(=S)Nc1ccc(SC(F)F)cc1	20.6 µM	> 25
O=C(Nc1ccccc1Oc1ccccc1)c1cc([N+](=O)[O-])ccc1Cl	6.46 µM	19.6
